Assay results from PubChem BioAssay AID256 (DTP/NCI, 2004).
Inconclusive results and toxic doses are left out. The calls were made as follows: active = survival T/C of 150% or more; inactive = T/C below 125% in these data.

Test system: CD2F1 mice, L1210 leukemia ip, survival T/C
Assay: NCI In Vivo Anticancer Drug Screen. Data for tumor model L1210 Leukemia (intraperitoneal) in CD2F1 (CDF1) mice
Conditions: higher = longer survival
Method in brief: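 Tumor-bearing mice (transplanted tumor) were split into treated and vehicle control groups, and the measured endpoint of each treated group was divided by that of its vehicle controls.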

[1] = endpoint: mean survival time, dose: 25.0 mg/kg/injection, schedule: Q01DX009 (ip), vehicle: saline
[2] = endpoint: mean survival time, dose: 100.0 mg/kg/injection, schedule: Q04DX003 (ip), vehicle: saline
[3] = endpoint: mean survival time, dose: 200.0 mg/kg/injection, schedule: Q04DX003 (ip), vehicle: saline
[4] = endpoint: mean survival time, dose: 400.0 mg/kg/injection, schedule: Q04DX003 (ip), vehicle: saline
[5] = endpoint: mean survival time, dose: 100.0 mg/kg/injection, schedule: Q04DX003 (ip), vehicle: saline with Tween-80
[6] = endpoint: mean survival time, dose: 200.0 mg/kg/injection, schedule: Q04DX003 (ip), vehicle: saline with Tween-80
[7] = endpoint: mean survival time, dose: 400.0 mg/kg/injection, schedule: Q04DX003 (ip), vehicle: saline with Tween-80
[8] = endpoint: mean survival time, dose: 5.0 mg/kg/injection, schedule: Q01DX009 (ip), vehicle: saline with Tween-80
[9] = endpoint: mean survival time, dose: 100.0 mg/kg/injection, schedule: Q01DX009 (ip), vehicle: saline with Tween-80
[10] = endpoint: mean survival time, dose: 200.0 mg/kg/injection, schedule: Q01DX009 (ip), vehicle: saline with Tween-80
[11] = endpoint: mean survival time, dose: 400.0 mg/kg/injection, schedule: Q01DX009 (ip), vehicle: saline with Tween-80
[12] = endpoint: mean survival time, dose: 50.0 mg/kg/injection, schedule: Q01DX009 (ip), vehicle: saline with Tween-80

Measured: T/C

CCN(CC)Cc1ccccn1
inactive: [1] 94 % of control | endpoint: mean survival time, dose: 50.0 mg/kg/injection, schedule: Q01DX009 (ip), vehicle: saline 97 % of control | endpoint: mean survival time, dose: 100.0 mg/kg/injection, schedule: Q01DX009 (ip), vehicle: saline 92 % of control | [2] 95 % of control

CNC(=O)NC1C(CO)OC2OC(C)(C)OC21 (centres undefined)
inactive: [2] 96 % of control | [3] 94 % of control | [4] 96 % of control

CCCCCCN(CCCCCC)CC(O)c1ccncc1 (centres undefined)
inactive: endpoint: mean survival time, dose: 25.0 mg/kg/injection, schedule: Q04DX003 (ip), vehicle: saline sonified 100 % of control | endpoint: mean survival time, dose: 50.0 mg/kg/injection, schedule: Q04DX003 (ip), vehicle: saline sonified 92 % of control | endpoint: mean survival time, dose: 100.0 mg/kg/injection, schedule: Q04DX003 (ip), vehicle: saline sonified 100 % of control

CC(=O)Nc1ccc2c(c1)C(P(=O)(OC(C)C)OC(C)C)c1ccccc1-2 (centres undefined)
inactive: [5] 95 % of control | [6] 95 % of control | [7] 92 % of control

CC(c1ccccc1)c1ccc(O)cc1 (centres undefined)
inactive: [5] 103 % of control | [6] 93 % of control | [7] 91 % of control

CN1CCC(=C(C#N)c2ccccc2)CC1
inactive: endpoint: mean survival time, dose: 12.5 mg/kg/injection, schedule: Q01DX009 (ip), vehicle: saline 100 % of control | [1] 102 % of control

C[n+]1c(-c2cc(C(F)(F)F)cc(C(F)(F)F)c2)c2cc(N)ccc2c2ccc(N)cc21
inactive: endpoint: mean survival time, dose: 6.25 mg/kg/injection, schedule: Q01DX005 (ip), vehicle: saline with Tween-80 106 % of control | endpoint: mean survival time, dose: 12.5 mg/kg/injection, schedule: Q01DX005 (ip), vehicle: saline with Tween-80 101 % of control | endpoint: mean survival time, dose: 25.0 mg/kg/injection, schedule: Q01DX005 (ip), vehicle: saline with Tween-80 106 % of control | endpoint: mean survival time, dose: 50.0 mg/kg/injection, schedule: Q01DX005 (ip), vehicle: saline with Tween-80 111 % of control | endpoint: mean survival time, dose: 100.0 mg/kg/injection, schedule: Q01DX005 (ip), vehicle: saline with Tween-80 116 % of control

O=CNc1ccc(O)cc1
inactive: [5] 93 % of control | [6] 101 % of control | [7] 103 % of control

COc1cccc2c1C(=O)c1c(O)c3c(c(O)c1C2=O)C[C@@](O)(C(O)CO)C[C@@H]3OC1CC(N(Cc2ccccc2)Cc2ccccc2)C(O)C(C)O1 (some centres undefined)
inactive: endpoint: median survival time, dose: 6.25 mg/kg/injection, schedule: Q01DX009 (ip), vehicle: water 122 % of control

C=C1C(=O)OCC2CCCCC12C (centres undefined)
inactive: endpoint: mean survival time, dose: 1.25 mg/kg/injection, schedule: Q01DX009 (ip), vehicle: saline with Tween-80 98 % of control | endpoint: mean survival time, dose: 2.5 mg/kg/injection, schedule: Q01DX009 (ip), vehicle: saline with Tween-80 101 % of control | [8] 101 % of control | endpoint: mean survival time, dose: 10.0 mg/kg/injection, schedule: Q01DX009 (ip), vehicle: saline with Tween-80 98 % of control

CC(C(=O)c1ccccc1)=C(C(F)(F)F)C(F)(F)F
inactive: [9] 98 % of control | [5] 91 % of control | [10] 97 % of control | [6] 97 % of control | [11] 103 % of control | [7] 100 % of control

C[C@]12CC[C@H](O)C[C@@H]1CC[C@@H]1[C@@H]2C(=O)C[C@@]2(C)[C@H]1CC[C@]2(O)C(=O)CBr
inactive: endpoint: mean survival time, dose: 100.0 mg/kg/injection, schedule: Q01DX009 (sc), vehicle: steriod suspending solution 97 % of control | endpoint: mean survival time, dose: 100.0 mg/kg/injection, schedule: Q04DX003 (sc), vehicle: steriod suspending solution 97 % of control | endpoint: mean survival time, dose: 200.0 mg/kg/injection, schedule: Q01DX009 (sc), vehicle: steriod suspending solution 94 % of control | endpoint: mean survival time, dose: 200.0 mg/kg/injection, schedule: Q04DX003 (sc), vehicle: steriod suspending solution 95 % of control | endpoint: mean survival time, dose: 400.0 mg/kg/injection, schedule: Q01DX009 (sc), vehicle: steriod suspending solution 90 % of control | endpoint: mean survival time, dose: 400.0 mg/kg/injection, schedule: Q04DX003 (sc), vehicle: steriod suspending solution 95 % of control

O=S1(=O)c2ccccc2Oc2ccccc21
inactive: [9] 97 % of control | [10] 107 % of control | [11] 95 % of control

CCOC(=O)/N=[N+](\[O-])c1ccccc1
inactive: endpoint: median survival time, dose: 3.12 mg/kg/injection, schedule: Q01DX009 (ip), vehicle: saline with Tween-80 109 % of control | endpoint: median survival time, dose: 6.25 mg/kg/injection, schedule: Q01DX009 (ip), vehicle: saline with Tween-80 112 % of control | endpoint: median survival time, dose: 12.5 mg/kg/injection, schedule: Q01DX009 (ip), vehicle: saline with Tween-80 105 % of control

C/C(=N/N)c1ccc(Br)cc1
inactive: endpoint: mean survival time, dose: 6.25 mg/kg/injection, schedule: Q01DX009 (ip), vehicle: saline with Tween-80 106 % of control | endpoint: mean survival time, dose: 6.25 mg/kg/injection, schedule: Q04DX003 (ip), vehicle: saline with Tween-80 101 % of control | endpoint: mean survival time, dose: 12.5 mg/kg/injection, schedule: Q01DX009 (ip), vehicle: saline with Tween-80 116 % of control | endpoint: mean survival time, dose: 12.5 mg/kg/injection, schedule: Q04DX003 (ip), vehicle: saline with Tween-80 98 % of control | endpoint: mean survival time, dose: 25.0 mg/kg/injection, schedule: Q01DX009 (ip), vehicle: saline with Tween-80 110 % of control | endpoint: mean survival time, dose: 25.0 mg/kg/injection, schedule: Q04DX003 (ip), vehicle: saline with Tween-80 95 % of control

CN(C=O)C(C(=O)Nc1cccc2c(OC(=O)C(N(C)C=O)(N(C)C=O)N(C)C=O)c(N=Nc3ccc(S(=O)(=O)Nc4nccs4)cc3)cc(N=Nc3ccc(S(=O)(=O)Nc4nccs4)cc3)c12)(N(C)C=O)N(C)C=O (tested in a mixture with another compound)
inactive: endpoint: median survival time, dose: 12.0 mg/kg/injection, schedule: Q01DX009 (ip), vehicle: saline with Tween-80 95 % of control | endpoint: median survival time, dose: 25.0 mg/kg/injection, schedule: Q01DX009 (ip), vehicle: saline with Tween-80 106 % of control | endpoint: median survival time, dose: 50.0 mg/kg/injection, schedule: Q01DX009 (ip), vehicle: saline with Tween-80 95 % of control | endpoint: median survival time, dose: 100.0 mg/kg/injection, schedule: Q01DX009 (ip), vehicle: saline with Tween-80 94 % of control | endpoint: median survival time, dose: 200.0 mg/kg/injection, schedule: Q01DX009 (ip), vehicle: saline with Tween-80 97 % of control | endpoint: median survival time, dose: 400.0 mg/kg/injection, schedule: Q01DX009 (ip), vehicle: saline with Tween-80 106 % of control

CC(=O)Oc1ccc(N2C(=O)C=CC2=O)cc1
inactive: endpoint: mean survival time, dose: 12.5 mg/kg/injection, schedule: Q04DX003 (ip), vehicle: Klucel (hydroxypropylcellulose) (HPC) 96 % of control

Cn1cc(C2OC(CO)C(O)C2O)c(=O)[nH]c1=O (centres undefined)
inactive: endpoint: mean survival time, dose: 12.5 mg/kg/injection, schedule: Q01DX005 (ip), vehicle: water 97 % of control | endpoint: mean survival time, dose: 25.0 mg/kg/injection, schedule: Q01DX005 (ip), vehicle: water 103 % of control | endpoint: mean survival time, dose: 50.0 mg/kg/injection, schedule: Q01DX005 (ip), vehicle: water 103 % of control | endpoint: mean survival time, dose: 100.0 mg/kg/injection, schedule: Q01DX005 (ip), vehicle: water 100 % of control | endpoint: mean survival time, dose: 200.0 mg/kg/injection, schedule: Q01DX005 (ip), vehicle: water 103 % of control

CCCCC1(C2CCCC2)NC(C)(C)CC(C)O1 (centres undefined)
inactive: [2] 97 % of control | [3] 96 % of control | [4] 89 % of control

CCOc1ccc(/C=C/c2ccc3ccccc3[n+]2C)cc1OCC
inactive: endpoint: mean survival time, dose: 25.0 mg/kg/injection, schedule: Q01DX001 (ip), vehicle: saline with Tween-80 102 % of control

CCCCCCCCCCNCCS
inactive: [8] 104 % of control | endpoint: mean survival time, dose: 20.0 mg/kg/injection, schedule: Q01DX009 (ip), vehicle: saline with Tween-80 93 % of control

Cc1noc(N)c1C
inactive: [12] 92 % of control | [9] 95 % of control | [10] 92 % of control

Cc1cc(C=O)c(C)n1-c1ccc(C(=O)O)cc1
inactive: [12] 101 % of control | [9] 93 % of control | [10] 101 % of control
